The values that follow come from patent US12503438B2, “Compounds for the treatment of kinase-dependent disorders” (Exelixis, Inc., priority 2019, dated 2025).

Assay [1] concerns the target T1, Mer (Homo sapiens, UniProt Q12866).
T1 construct: host or cells: 293A cells (Thermo Fisher #R70507)
T1 sequence (Q12866 21-999): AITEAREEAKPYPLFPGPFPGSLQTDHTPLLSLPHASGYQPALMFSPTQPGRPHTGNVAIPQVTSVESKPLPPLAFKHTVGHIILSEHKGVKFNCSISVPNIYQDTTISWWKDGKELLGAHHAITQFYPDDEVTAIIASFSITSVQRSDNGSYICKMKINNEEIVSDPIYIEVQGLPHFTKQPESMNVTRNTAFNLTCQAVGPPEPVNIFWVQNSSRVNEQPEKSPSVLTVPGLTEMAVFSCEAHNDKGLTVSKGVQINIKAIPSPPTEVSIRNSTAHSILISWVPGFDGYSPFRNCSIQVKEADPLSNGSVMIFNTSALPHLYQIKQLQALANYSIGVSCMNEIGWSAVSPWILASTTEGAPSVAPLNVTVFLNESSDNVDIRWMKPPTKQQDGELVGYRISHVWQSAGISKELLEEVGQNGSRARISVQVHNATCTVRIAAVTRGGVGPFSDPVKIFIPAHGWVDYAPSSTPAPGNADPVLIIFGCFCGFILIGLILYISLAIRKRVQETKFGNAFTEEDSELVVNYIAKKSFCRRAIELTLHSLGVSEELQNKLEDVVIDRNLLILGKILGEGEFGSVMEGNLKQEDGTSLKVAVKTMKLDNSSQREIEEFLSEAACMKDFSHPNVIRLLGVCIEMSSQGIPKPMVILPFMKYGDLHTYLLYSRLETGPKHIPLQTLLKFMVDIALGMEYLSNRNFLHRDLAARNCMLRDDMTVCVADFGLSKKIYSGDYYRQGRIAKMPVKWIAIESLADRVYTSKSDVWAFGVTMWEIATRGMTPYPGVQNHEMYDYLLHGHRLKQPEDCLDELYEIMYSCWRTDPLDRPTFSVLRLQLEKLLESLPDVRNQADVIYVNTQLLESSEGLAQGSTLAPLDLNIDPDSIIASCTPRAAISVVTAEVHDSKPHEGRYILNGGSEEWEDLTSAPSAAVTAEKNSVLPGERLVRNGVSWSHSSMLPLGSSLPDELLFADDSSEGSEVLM
In words: Mer autophosphorylation ELISA in transient transfected 293A cells. The class given is cell-based. The settings on record: cellular activity; MERTK-transfected 293A cells, phospho-Mer ELISA. As to the method: 293A cells (Thermo Fisher #R70507) were seeded at 1.5×10^6 cells/well onto 100 mm dish (Greiner #664169), in DMEM (Thermo Fisher #11995-040) containing 10% FBS (Thermo Fisher #26140-079), 1% MEM NEAA (Thermo Fisher #11140-050), 1% GlutaMax (Thermo Fisher #35050-061), and 1% Penicillin Streptomycin (Thermo Fisher #15140-122). 293A cells were incubated at 37° C., 5% CO2 for 24 h and then transfected with 6 μg MERTK DNA (Genecopoeia #EX-Z8208-M02) using TransIT LT1 transfection reagent (Mirus-Bio #MIR2305). After 24 h incubation, the transfected 293A cells were seeded at 1×10^5 cells/well onto 96-well plates (Corning #3904) in DMEM growth medium overnight. Test compounds were serially diluted to produce an 8-point dose curve in fresh serum-free medium to a final concentration of 0.3% DMSO (vehicle) and added to the cells and incubated for 1 h. Cells were then immediately lysed with 150 μL of cold 1× lysis buffer [20 mM Tris, 137 mM sodium chloride, 2 mM EDTA, 10% glycerol, 1% NP-40 alternative, 1 mM activated sodium orthovanadate, 1 mM PefaBloc SC (Sigma-Aldrich #11429868001), protease/phosphatase inhibitor tablet (Thermo Fisher #A32959)]. Lysates were clarified by centrifugation and 50 μL/well added into the human phospho-Mer DuoSet IC ELISA (R&D Systems #DYC2579-2). Assay was performed according to manufacturer's instructions and sample phospho-Mer concentrations were extrapolated using human phospho-Mer control (R&D Systems #841793) as a standard. Positive control wells (100% activity) contained DMSO-treated cell lysates. Negative control wells (0% activity) contained reference inhibitor-treated cell lysates. IC50 values were calculated by nonlinear regression analysis using a 4-parameter logistic curve fit in ActivityBase XE (IDBS).

The target in assay [2] is KDR (Homo sapiens, UniProt P35968). The experiment in a line: KDR autophosphorylation ELISA in HUVEC cells. The class given is cell-based. More on the design: endogenous in cells; host or cells: HUVEC (Lonza #C2519A). The settings on record: cellular activity, VEGF165-stimulated, phospho-KDR ELISA. As to the method: Human umbilical vein endothelial cells or HUVEC (Lonza #C2519A) were seeded at 2×10^4 cells/well onto 96-well plates (Corning #3904), in EGM-2 growth medium (Lonza #CC-3162) containing 1% Penicillin Streptomycin (Thermo Fisher #15140-122). HUVEC cells were incubated at 37° C., 5% CO2 for 24 h and then starved for 24 h in serum-free EBM-2 basal medium (Lonza #CC-3156) containing 1% Penicillin Streptomycin. Test compounds were serially diluted to produce an 8-point dose curve in fresh serum-free medium to a final concentration of 0.3% DMSO (vehicle) and added to the cells and incubated for 1 h. Cells were then stimulated with 100 ng/mL recombinant human VEGF165 (R&D Systems #293-VE-500) for 5 min, washed with cold PBS, and immediately lysed with 130 μL of cold 1× lysis buffer [20 mM Tris, 137 mM sodium chloride, 2 mM EDTA, 10% glycerol, 1% NP-40 alternative, 1 mM activated sodium orthovanadate, 1 mM PefaBloc SC (Sigma-Aldrich #11429868001), protease/phosphatase inhibitor tablet (Thermo Fisher #A32959)]. Lysates were collected and 100 μL/well added into the human phospho-KDR DuoSet IC ELISA (R&D Systems #DYC1766-2). Assay was performed according to manufacturer's instructions and sample phospho-KDR concentrations were extrapolated using human phospho-KDR control (R&D Systems #841421) as a standard. Positive control wells (100% activity) contained VEGF165-stimulated, DMSO-treated cell lysates. Negative control wells (0% activity) contained non-stimulated cell lysates. IC50 values were calculated by nonlinear regression analysis using a 4-parameter logistic curve fit in ActivityBase XE (IDBS).
A general note: An ELISA detects its analyte on a solid surface through an enzyme-linked reagent.

For orientation: IC50 means the concentration at which inhibition is half-maximal. Read a low IC50 as inhibition by little substance.

Chain of KDR (P35968 20-1356): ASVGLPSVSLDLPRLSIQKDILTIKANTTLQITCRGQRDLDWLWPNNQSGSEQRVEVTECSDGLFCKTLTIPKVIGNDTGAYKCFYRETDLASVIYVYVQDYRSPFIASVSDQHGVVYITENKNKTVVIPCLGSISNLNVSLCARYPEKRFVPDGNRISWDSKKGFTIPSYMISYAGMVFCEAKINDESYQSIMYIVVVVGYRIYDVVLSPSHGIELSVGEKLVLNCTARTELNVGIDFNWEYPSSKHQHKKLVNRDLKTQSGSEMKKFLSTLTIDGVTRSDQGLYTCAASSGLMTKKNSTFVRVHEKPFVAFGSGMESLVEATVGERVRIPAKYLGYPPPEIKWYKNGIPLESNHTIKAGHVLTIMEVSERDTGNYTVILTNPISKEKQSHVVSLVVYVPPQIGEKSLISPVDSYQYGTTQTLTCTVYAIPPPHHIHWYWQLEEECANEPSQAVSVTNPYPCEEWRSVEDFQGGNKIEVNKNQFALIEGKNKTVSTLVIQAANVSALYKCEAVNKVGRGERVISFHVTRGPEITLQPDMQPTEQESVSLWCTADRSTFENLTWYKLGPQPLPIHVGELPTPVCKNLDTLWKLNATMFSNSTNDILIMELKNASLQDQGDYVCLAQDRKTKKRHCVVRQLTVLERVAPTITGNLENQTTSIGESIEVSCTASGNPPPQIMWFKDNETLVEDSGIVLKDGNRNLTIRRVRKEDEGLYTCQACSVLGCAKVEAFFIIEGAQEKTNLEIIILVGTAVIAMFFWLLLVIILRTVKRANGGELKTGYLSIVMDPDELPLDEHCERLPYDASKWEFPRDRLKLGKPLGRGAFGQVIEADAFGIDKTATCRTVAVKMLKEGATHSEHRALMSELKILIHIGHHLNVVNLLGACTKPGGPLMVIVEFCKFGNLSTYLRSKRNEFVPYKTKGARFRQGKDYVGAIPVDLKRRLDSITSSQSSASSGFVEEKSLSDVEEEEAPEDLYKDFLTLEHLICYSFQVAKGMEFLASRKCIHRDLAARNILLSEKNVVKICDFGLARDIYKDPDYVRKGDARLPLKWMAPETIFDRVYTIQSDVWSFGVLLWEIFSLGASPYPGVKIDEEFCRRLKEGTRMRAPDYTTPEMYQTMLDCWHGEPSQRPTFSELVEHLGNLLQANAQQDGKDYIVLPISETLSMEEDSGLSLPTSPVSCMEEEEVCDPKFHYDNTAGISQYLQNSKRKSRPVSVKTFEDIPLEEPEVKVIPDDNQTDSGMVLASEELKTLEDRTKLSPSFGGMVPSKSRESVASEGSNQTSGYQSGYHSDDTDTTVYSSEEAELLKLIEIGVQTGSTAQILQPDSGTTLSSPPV

Regarding `Cn1cc(-c2ccc3c(Oc4ccc(NC(=O)C5(C(=O)Nc6ccc(F)cc6)CC5)cc4)ccnc3c2)ccc1=O` [Compound 119, 1-N′-(4-Fluorophenyl)-1-N-[4-[7-(1-methyl-6-oxopyridin-3-yl)quinolin-4-yl]oxyphenyl]cyclopropane-1,1-dicarboxamide], the IC50 is 10 to 100 nM in assay [1] and not above 10 nM in assay [2].

As for `CN1CCC(n2cc(-c3ccc4c(Oc5ccc(NC(=O)C6(C(=O)Nc7ccc(F)cc7)CC6)cc5)ccnc4c3)cn2)CC1` [Compound 61, 1-N′-(4-Fluorophenyl)-1-N-[4-[7-[1-(1-methylpiperidin-4-yl)pyrazol-4-yl]quinolin-4-yl]oxyphenyl]cyclopropane-1,1-dicarboxamide], the figures for the IC50 in assay [1] and in assay [2] were not above 10 nM and 10 to 100 nM, respectively.

In the case of `Cc1cc2c(Oc3ccc(NC(=O)C4(C(=O)Nc5ccc(F)cc5)CC4)cc3)ccnc2cc1-c1cnn(C)c1` [Compound 78, 1-N′-(4-Fluorophenyl)-1-N-[4-[6-methyl-7-(1-methylpyrazol-4-yl)quinolin-4-yl]oxyphenyl]cyclopropane-1,1-dicarboxamide], the 50% inhibitory concentration (IC50) in assay [1] and in assay [2] was 10 to 100 nM each time.

For the compound `N#Cc1cncc(-c2ccc3c(Oc4ccc(NC(=O)C5(C(=O)Nc6ccc(F)cc6)CC5)cc4)ccnc3c2)c1` [Compound 40, 1-N-[4-[7-(5-Cyanopyridin-3-yl)quinolin-4-yl]oxyphenyl]-1-N′-(4-fluorophenyl)cyclopropane-1,1-dicarboxamide], the concentration for half-maximal inhibition (IC50) in assay [1] and in assay [2] was 10 to 100 nM in each case.

Consider `N#Cc1cc(-c2ccc3c(Oc4ccc(NC(=O)C5(C(=O)Nc6ccc(F)cc6)CC5)cc4)ccnc3c2)ccn1` [Compound 34, 1-N-[4-[7-(2-Cyanopyridin-4-yl)quinolin-4-yl]oxyphenyl]-1-N′-(4-fluorophenyl)cyclopropane-1,1-dicarboxamide], for which the IC50 in assay [1] and in assay [2] was 10 to 100 nM in each case.

Regarding `CNC(=O)c1cc2c(Oc3ccc(NC(=O)C4(C(=O)Nc5ccc(F)cc5)CC4)cc3)ccnc2cc1-c1cnn(C)c1` [Compound 77, 1-N′-(4-Fluorophenyl)-1-N-[4-[6-(methylcarbamoyl)-7-(1-methylpyrazol-4-yl)quinolin-4-yl]oxyphenyl]cyclopropane-1,1-dicarboxamide], the half-inhibitory concentration (IC50) in assay [1] and in assay [2] was 10 to 100 nM throughout.

In the case of `O=C(Nc1ccc(F)cc1)C1(C(=O)Nc2ccc(Oc3ccnc4cc(-c5cnn(C6CCNCC6)c5)ccc34)cc2)CC1` [Compound 60, 1-N′-(4-Fluorophenyl)-1-N-[4-[7-(1-piperidin-4-ylpyrazol-4-yl)quinolin-4-yl]oxyphenyl]cyclopropane-1,1-dicarboxamide], the concentration for half-maximal inhibition (IC50) in assay [1] and in assay [2] was 10 to 100 nM in each case.

`CC(C)(C)n1cc(-c2ccc3c(Oc4ccc(NC(=O)C5(C(=O)Nc6ccc(F)cc6)CC5)cc4)ccnc3c2)cn1` [Compound 23, 1-N-[4-[7-(1-tert-Butylpyrazol-4-yl)quinolin-4-yl]oxyphenyl]-1-N′-(4-fluorophenyl)cyclopropane-1,1-dicarboxamide]: the IC50 in assay [1] and in assay [2] was 10 to 100 nM in each case.

Consider `COc1cc2c(Oc3ccc(NC(=O)C4(C(=O)Nc5ccc(F)cc5)CC4)cc3)ccnc2cc1-c1cnn(C)c1` [Compound 76, 1-N′-(4-Fluorophenyl)-1-N-[4-[6-methoxy-7-(1-methylpyrazol-4-yl)quinolin-4-yl]oxyphenyl]cyclopropane-1,1-dicarboxamide], for which the results for the IC50 in assay [1] and in assay [2] were not above 10 nM and 10 to 100 nM, respectively.

The compound `C[Si](C)(C)C#Cc1ccc2c(Oc3ccc(NC(=O)C4(C(=O)Nc5ccc(F)cc5)CC4)cc3)ccnc2c1` [Compound 63, 1-N′-(4-Fluorophenyl)-1-N-[4-[7-(2-trimethylsilylethynyl)quinolin-4-yl]oxyphenyl]cyclopropane-1,1-dicarboxamide] showed a 50% inhibitory concentration (IC50) in assay [2] of more than 300 nM.

As for `Cc1cc2c(Oc3ccc(NC(=O)C4(C(=O)Nc5ccc(F)cc5)CC4)cc3)ccnc2cc1-c1ncc[nH]1` [Compound 120, 1-N′-(4-Fluorophenyl)-1-N-[4-[7-(1H-imidazol-2-yl)-6-methylquinolin-4-yl]oxyphenyl]cyclopropane-1,1-dicarboxamide], in assay [1], the 50% inhibitory concentration (IC50) was in the range of 10 to 100 nM.

For `CN(C(=O)C1(C(=O)Nc2ccc(Oc3ccnc4cc(-c5cnn(C)c5)ccc34)cc2)CC1)c1ccc(F)cc1` [Compound 82A, 1-N′-(4-Fluorophenyl)-1-N′-methyl-1-N-[4-[7-(1-methylpyrazol-4-yl)quinolin-4-yl]oxyphenyl]cyclopropane-1,1-dicarboxamide], in assay [2], the 50% inhibitory concentration (IC50) was more than 300 nM.

Compound `CC(C)Oc1ccc(-c2ccc3c(Oc4ccc(NC(=O)C5(C(=O)Nc6ccc(F)cc6)CC5)cc4)ccnc3c2)cn1` [Compound 50, 1-N′-(4-Fluorophenyl)-1-N-[4-[7-(6-propan-2-yloxypyridin-3-yl)quinolin-4-yl]oxyphenyl]cyclopropane-1,1-dicarboxamide] displayed a 50% inhibitory concentration (IC50) in assay [1] of 100 to 300 nM.

Take `O=C(Nc1ccc(F)cc1)C1(C(=O)Nc2ccc(Oc3ccnc4cc(-c5cnn[nH]5)ccc34)cc2)CC1` [Compound 65, 1-N′-(4-Fluorophenyl)-1-N-[4-[7-(1H-triazol-5-yl)quinolin-4-yl]oxyphenyl]cyclopropane-1,1-dicarboxamide]: the concentration for half-maximal inhibition (IC50) in assay [2] is more than 300 nM.

The compound `Cc1noc(C)c1-c1ccc2c(Oc3ccc(NC(=O)C4(C(=O)Nc5ccc(F)cc5)CC4)cc3)ccnc2c1` [Compound 53, 1-N-[4-[7-(3,5-Dimethyl-1,2-oxazol-4-yl)quinolin-4-yl]oxyphenyl]-1-N′-(4-fluorophenyl)cyclopropane-1,1-dicarboxamide] returned a concentration for half-maximal inhibition (IC50) in assay [2] of 100 to 300 nM.

For the compound `C#Cc1ccc2c(Oc3ccc(NC(=O)C4(C(=O)Nc5ccc(F)cc5)CC4)cc3)ccnc2c1` [Compound 64, 1-N-[4-(7-Ethynylquinolin-4-yl)oxyphenyl]-1-N′-(4-fluorophenyl)cyclopropane-1,1-dicarboxamide], the 50% inhibitory concentration (IC50) in assay [2] lay in the range of 100 to 300 nM.
